Where “and” joins values, the source holds several entries; their conditions need not be identical. Equal entries are not always repeated.
Test: Solubility of rofecoxib in solvent systems containing two or three solvents; synergistic or antagonist effect
Type: physicochemical
Experimental: The solubility of rofecoxib in solvent systems containing two or three solvents was determined. In solvent systems containing two solvents, […] of each solvent was added to 100 mg of rofecoxib. In solvent systems containing three solvents, […] of each solvent was added to 100 mg of rofecoxib. The samples were mixed using the protocol for solvent systems containing single solvents above. Serial dilutions of the rofecoxib solvent solutions were made (1:100 v:v), (1:1000 v/v), and (1:2000 v/v). Solvents without rofecoxib were diluted with methanol and used to blank a Beckman DU-7400 spectrophotometer. The absorbance of the samples was determined at a wavelength of 279.1 nm. The concentration of rofecoxib dissolved in the solvent was calculated using Beer's Law. The ability of the solvent systems to synergistically dissolve rofecoxib or antagonistically dissolve rofecoxib (reduce the ability of rofecoxib to dissolve was determined) according to the protocol below. The contribution for solubility of a single solvent in a two-mixture solution was calculated to be ½ of the calculated solubility of rofecoxib in one gram of excipient. Likewise, the contribution for solubility of a three-mixture was calculated to be ⅓ of the calculated solubility of rofecoxib in one gram of excipient. The expected solubility for a mixture is the addition of the contribution of each excipient. […] The percent change between the expected solubility and actual solubility was determined. […] Similar calculations are utilized for solvent systems containing three or more solvents.

CS(=O)(=O)c1ccc(C2=C(c3ccccc3)C(=O)OC2)cc1 [Rofecoxib]
% Change (observed vs expected solubility) (in DI + PGD): 123.9%
Expected Solubility (in DI + PGD): 23.04 mg/g
Observed Solubility (in DI + PGD): 28.54 mg/g
% Change (observed vs expected solubility) (in EA + AC): 79.1%
Expected Solubility (in EA + AC): 14.52 mg/g
Observed Solubility (in EA + AC): 11.49 mg/g
% Change (observed vs expected solubility) (in EA + AT): 82.6%
Expected Solubility (in EA + AT): 2.91 mg/g
Observed Solubility (in EA + AT): 2.40 mg/g
% Change (observed vs expected solubility) (in EA + BA): 94.1%
Expected Solubility (in EA + BA): 12.52 mg/g
Observed Solubility (in EA + BA): 11.78 mg/g
% Change (observed vs expected solubility) (in EA + DGME): 55.4%
Expected Solubility (in EA + DGME): 7.29 mg/g
Observed Solubility (in EA + DGME): 4.04 mg/g
% Change (observed vs expected solubility) (in EA + DI): 62.0%
Expected Solubility (in EA + DI): 22.32 mg/g
Observed Solubility (in EA + DI): 13.84 mg/g
% Change (observed vs expected solubility) (in EA + DIA): 85.7%
Expected Solubility (in EA + DIA): 3.77 mg/g
Observed Solubility (in EA + DIA): 3.23 mg/g
% Change (observed vs expected solubility) (in EA + DMSO): 122.9%
Expected Solubility (in EA + DMSO): 74.55 mg/g
Observed Solubility (in EA + DMSO): 91.63 mg/g
% Change (observed vs expected solubility) (in EA + DS): 88.0%
Expected Solubility (in EA + DS): 3.67 mg/g
Observed Solubility (in EA + DS): 3.22 mg/g
% Change (observed vs expected solubility) (in EA + IPTD): 41.5%
Expected Solubility (in EA + IPTD): 2.75 mg/g
Observed Solubility (in EA + IPTD): 1.14 mg/g
% Change (observed vs expected solubility) (in EA + M24D): 110.4%
Expected Solubility (in EA + M24D): 3.05 mg/g
Observed Solubility (in EA + M24D): 3.36 mg/g
% Change (observed vs expected solubility) (in EA + MP): 75.3%
Expected Solubility (in EA + MP): 101.75 mg/g
Observed Solubility (in EA + MP): 76.59 mg/g
% Change (observed vs expected solubility) (in EA + OA): 38.5%
Expected Solubility (in EA + OA): 2.95 mg/g
Observed Solubility (in EA + OA): 1.14 mg/g
% Change (observed vs expected solubility) (in EA + PC): 103.9%
Expected Solubility (in EA + PC): 27.47 mg/g
Observed Solubility (in EA + PC): 28.53 mg/g
% Change (observed vs expected solubility) (in EA + PEG): 120.0%
Expected Solubility (in EA + PEG): 9.32 mg/g
Observed Solubility (in EA + PEG): 11.19 mg/g
% Change (observed vs expected solubility) (in EA + PGD): 109.1% and 100.3%
Expected Solubility (in EA + PGD): 6.22 mg/g
Observed Solubility (in EA + PGD): 6.78 mg/g and 6.23 mg/g
% Change (observed vs expected solubility) (in EA + PPG): 156.1%
Expected Solubility (in EA + PPG): 2.90 mg/g
Observed Solubility (in EA + PPG): 4.53 mg/g
% Change (observed vs expected solubility) (in EA + PS20): 107.9%
Expected Solubility (in EA + PS20): 7.34 mg/g
Observed Solubility (in EA + PS20): 7.92 mg/g
% Change (observed vs expected solubility) (in EA + PS80): 105.8%
Expected Solubility (in EA + PS80): 7.61 mg/g
Observed Solubility (in EA + PS80): 8.05 mg/g
% Change (observed vs expected solubility) (in MP + EA): 71.4%
Expected Solubility (in MP + EA): 107.75 mg/g
Observed Solubility (in MP + EA): 76.89 mg/g
% Change (observed vs expected solubility) (in MP + PEG + PGD): 35.17%
Expected Solubility (in MP + PEG + PGD): 72.69 mg/g
Expected Solubility (in PC + AC): 36.48 mg/g and 36.5 mg/g
% Change (observed vs expected solubility) (in PC + AC + MP): 34.18%
Expected Solubility (in PC + AC + MP): 90.34 mg/g
% Change (observed vs expected solubility) (in PC + AC + PEG): 123.74%
Expected Solubility (in PC + AC + PEG): 28.72 mg/g
Observed Solubility (in PC + AC + PEG): 35.53 mg/g
% Change (observed vs expected solubility) (in PC + AC + PGD): 200.59% and 129.71% and 114.18%
Expected Solubility (in PC + AC + PGD): 26.65 mg/g
Observed Solubility (in PC + AC + PGD): 53.45 mg/g and 34.56 mg/g
% Change (observed vs expected solubility) (in PC + BA): 99.3%
Expected Solubility (in PC + BA): 34.49 mg/g
Observed Solubility (in PC + BA): 34.26 mg/g
% Change (observed vs expected solubility) (in PC + BA + AC): 134.75%
Expected Solubility (in PC + BA + AC): 30.85 mg/g
Observed Solubility (in PC + BA + AC): 41.57 mg/g
% Change (observed vs expected solubility) (in PC + BA + DMSO): 85.64%
Expected Solubility (in PC + BA + DMSO): 70.86 mg/g
% Change (observed vs expected solubility) (in PC + BA + MP): 21.30%
Expected Solubility (in PC + BA + MP): 88.99 mg/g
% Change (observed vs expected solubility) (in PC + BA + PEG): 63.48%
Expected Solubility (in PC + BA + PEG): 27.37 mg/g
% Change (observed vs expected solubility) (in PC + BA + PGD): 84.91%
Expected Solubility (in PC + BA + PGD): 25.30 mg/g
% Change (observed vs expected solubility) (in PC + MP): 69.3%
Expected Solubility (in PC + MP): 123.72 mg/g
Observed Solubility (in PC + MP): 85.76 mg/g
% Change (observed vs expected solubility) (in PC + MP + PEG): 46.39%
Expected Solubility (in PC + MP + PEG): 86.86 mg/g
% Change (observed vs expected solubility) (in PC + MP + PGD): 21.70%
Expected Solubility (in PC + MP + PGD): 84.79 mg/g
% Change (observed vs expected solubility) (in PC + PEG + PGD): 153.76%
Expected Solubility (in PC + PEG + PGD): 23.17 mg/g
Observed Solubility (in PC + PEG + PGD): 35.62 mg/g
% Change (observed vs expected solubility) (in PC + PGD): 123.0% and 97.8%
Expected Solubility (in PC + PGD): 28.18 mg/g
Observed Solubility (in PC + PGD): 34.66 mg/g and 27.55 mg/g
% Change (observed vs expected solubility) (in PEG + DGME): 119.7%
Expected Solubility (in PEG + DGME): 11.11 mg/g
Observed Solubility (in PEG + DGME): 13.30 mg/g
% Change (observed vs expected solubility) (in PEG + EA): 150.3%
Expected Solubility (in PEG + EA): 9.32 mg/g
Observed Solubility (in PEG + EA): 14.00 mg/g
% Change (observed vs expected solubility) (in PEG + PGD): 124.5% and 120.8%
Expected Solubility (in PEG + PGD): 10.04 mg/g
Observed Solubility (in PEG + PGD): 12.50 mg/g and 12.13 mg/g

From US11260023B2, “Topical compositions containing rofecoxib and methods of making and using the same” (BRIORI BIOTECH, LLC, priority 2020, dated 2022)
